In paper PMC3023147 (Protein & cell, 2010):

Biological target: T1, mTAT (mouse tyrosine aminotransferase) (Mus musculus, UniProt Q8QZR1)
T1 sequence (Q8QZR1 41-442): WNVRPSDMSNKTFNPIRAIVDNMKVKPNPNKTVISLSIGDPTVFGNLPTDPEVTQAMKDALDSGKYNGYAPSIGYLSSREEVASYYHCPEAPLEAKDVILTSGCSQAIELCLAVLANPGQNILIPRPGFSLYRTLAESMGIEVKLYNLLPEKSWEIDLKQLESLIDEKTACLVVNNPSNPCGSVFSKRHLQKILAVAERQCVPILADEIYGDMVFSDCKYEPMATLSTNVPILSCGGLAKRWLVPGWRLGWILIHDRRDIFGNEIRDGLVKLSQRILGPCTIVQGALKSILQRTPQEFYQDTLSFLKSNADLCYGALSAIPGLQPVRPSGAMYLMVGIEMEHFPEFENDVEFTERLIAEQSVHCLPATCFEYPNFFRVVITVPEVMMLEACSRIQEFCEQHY
Assay: X-ray crystal structure, […] Å
Assay type: binding
Settings: covalent; internal Schiff base with Lys280; pH 6.8

Cc1ncc(COP(=O)(O)O)c(C=O)c1O [PLP]
X-ray crystal structure, 2.9 Å: Residual electron density clearly revealed the presence of covalently bound PLP in the active center
